# Source: patent US20040101484A1, “Nasal delivery of apomorphine in combination with glycol derivatives” (priority 1998, published 2004)
# Key:
# healthy male subjects = assay: Adverse nasal effects after nasal administration of apomorphine HCl formulations to male subjects (Examples 1-6); assay type: in vivo, human
# Description: A series of experiments were performed to illustrate features and advantages of the present invention. Several conditions were common to each experiment. […] Further, none of the subjects took any medication for two weeks prior to these experiments.
# A different dosage of apomorphine was administered in each experiment to determine a preferred range of dosages having minimal adverse effects.
# [1] = tested on: patients suffering from erectile dysfunction; conditions: intranasal delivery, 2.5 mg to 3.5 mg; cited from earlier work
# [2] = tested on: patients suffering from psychogenic erectile dysfunction; assay: In-clinic efficacy and safety study of nasal apomorphine HCl, double blind double dummy placebo controlled cross over, self graded questionnaire; assay type: in vivo, human; conditions: nasal administration, containing propylene glycol
# [3] = 0.5 mg, without glycol derivatives, three subjects
# [4] = 2.0 mg, without glycol derivatives, nine subjects
compound,measurement,setting,value
CN1CCc2cccc3c2[C@H]1Cc1ccc(O)c(O)c1-3 [apomorphine],Adverse nasal effects (overall conclusion),"healthy male subjects; 0.5 mg, does not contain glycol derivatives",some adverse nasal effects
same,Number of subjects who did not suffer any symptoms,healthy male subjects; [3],One
same,Number of subjects who suffered from mild nasal burning or pain,healthy male subjects; [3],two
same,Adverse nasal effects (overall conclusion),"healthy male subjects; 1.0 mg dose, does not contain glycol derivatives",some adverse nasal effects
same,Adverse nasal effects (overall conclusion),"healthy male subjects; 1.0 mg, composition with propylene glycol (Table 5), six subjects",none of the subjects suffered from adverse nasal effects
same,Adverse nasal effects (overall conclusion),"healthy male subjects; 2.0 mg, composition with propylene glycol (Table 6), six subjects",none of the subjects suffered from adverse nasal effects
same,Adverse nasal effects (overall conclusion),"healthy male subjects; 2.0 mg, without glycol derivatives",some adverse nasal effects
same,Number of subjects who suffered from mild nasal burning,healthy male subjects; [4],One
same,Number of subjects who suffered from mild to moderate nasal burning,healthy male subjects; [4],one
same,Number of subjects who suffered from mild unusual taste,healthy male subjects; [4],four
same,Adverse nasal effects (overall conclusion),"healthy male subjects; 4.0 mg, does not contain glycol derivatives",some adverse nasal effects
same,"Number of subjects who experienced moderate sneezing, somewhat troublesome","healthy male subjects; 4.0 mg, does not contain glycol derivatives, two subjects",One
same,Eliciting an erection,[1],effective for eliciting an erection
same,Side effects suffered by study participants,[1],"extensive and serious side effects including hypotension, nausea, vomiting, impaired vision, diaphoresis and ashen coloring"
same,Induction of an erection (overall conclusion),[2],effective in inducing an erection
same,Induction of an erection compared with nasal placebo or Viagra,[2]; listed as apomorphine HCI,more effective than a nasal placebo or Viagra in inducing an erection
same,Induction of an erection compared with nasal placebo or Viagra,[2]; listed as apomorphine HCl,more effective than nasal placebo or Viagra in inducing an erection
